Source: article PMC3430621, “HPLC–MS/MS Analysis of a Traditional Chinese Medical Formulation of Bu-Yang-Huan-Wu-Tang and Its Pharmacokinetics after Oral Administration to Rats” (PLoS ONE, 2012)
Where two headings read alike, the source gives them in different places.

Columns and labels:
[1] = Pharmacokinetics in conscious freely moving rats after oral administration of BYHWT extract (HPLC-MS/MS of plasma); type: in vivo, Sprague-Dawley rats; details: for Cmax / Tmax / half-life / Cl: male, Sprague-Dawley
Source text: The protocol listed below has been reviewed and approved by the Institutional Animal Care and Use Committee (IACUC; approval number 1010409) by the Institutional Animal Experimentation Committee of the National Yang-Ming University. Male pathogen-free Sprague-Dawley rats (250±50 g body weight) were obtained from the Laboratory Animal Center of National Yang Ming University. The animals had free access to food (Laboratory rodent diet 5P14, PMI Feeds, Richmond, IN, USA) and water was allowed at all times. All animal experiments followed the National Yang-Ming University guidelines and procedures for the care of laboratory animals. […] Experimental rats were initially anesthetized with pentobarbital (50 mg/kg, i.p.), and polyethylene tubing was implanted in the right jugular vein for blood sampling. The tube crossed the subcutaneous tissue and was fixed at its exit from the dorsal neck region. The patency tubing was maintained by filling with heparinized saline (20 units/mL). After surgery, the rats were placed in experimental cages and allowed to recuperate for one day. The rats were kept fasted for 12 h and water were available ad libitum before the BYHWT administration. […] In our study, the dose of BYHWT (10 g/kg) was appropriate for oral administration in rats. […] The condensed blood collection in the absorption phase is to figure out the maximum concentration and the time when it reaches the maximum concentration. The time points in the elimination phase are not close. This strategy is commonly used in the pharmacokinetic studies but the total blood consumption should not be over 20% of body blood. In these experimental rats, the total blood sampling volume is within 20% during 12 h. Plasma was separated by centrifuging the blood sample at 6000 rpm for 10 min at 4°C. […] The samples were vortexed and centrifuged at 16,100×g for 10 min. In our micro-analysis, less than 200 μL is needed. Actually, the collected blood volume is around 120-150 μL for each time point. After centrifugation, the plasma samples (50 μL) were vortex-mixed with 100 μL of acetonitrile. The supernatants were collected and filtered. Around 20 μL aliquot of the supernatants was transferred into the vial for analysis by HPLC-MS/MS system. The acetonitrile but not the real sample was used in the needle pre-wash standard procedure [19]. The LC-MS/MS system consisted of an Agilent 1100 series LC with automatic liquid chromatographic sampler, injector, bi-pump and degasser; and Applied Biosystems/MDS Sciex API 3000 tandem quadrupole mass spectrometry equipped with electrospray ionization (ESI) interface using the following parameters: nebulizer gas (NEB):10, curtain gas (CUR): 7, collisionally activated dissociation gas (CAD): 12, ionspray voltage (IS): 5000 V, turbo ionspray temperature (TEM): 450°C. Nitrogen was used in all cases. The mass spectrometer was operated in the positive ion detection mode. […] The following linear gradient program was applied to the analyte with the mobile phase consisting of methanol (0.1% formic acid, solvent A) and NH4OAc (0.1% formic acid, solvent B): 0-1 min: 30-70% A; 1-2 min 70-90%; 2-8 min: 90-90%; 8-9 min: 90-30%, 9-18 min: 30-30%, v/v. […] The flow rate was maintained at […]. Pharmacokinetic parameters including maximum plasma concentration (Cmax), time to reach the maximum concentrations (Tmax), half-life (t1/2), area under concentration-time curve (AUC) and oral clearance (CL) were estimated by a non-compartmental analysis using the pharmacokinetic program, WinNonlin Standard Edition Version 1.1 (Scientific Consulting, Apex, NC, USA). All results were expressed as average mean ± standard deviation (S.D.). ANOVA was used to evaluate differences, and a value of P<0.05 was taken as statistically significant.

[2] = Stability of the analytes in rat plasma samples (freeze-thaw, short-term, long-term, autosampler); type: in vitro ADME; details: n = 3; for Stability (%) Autosampler stability: autosampler 8°C 12 h; for Stability (%) Short-term stability: room temperature 6 h; for Stability (%) Freeze-thaw stability: three freeze-thaw cycles; for Stability (%) Long-term stability: −20°C 14 days
Description: Stability was also assessed using the low, medium and high concentrations of analytes. Freeze-thaw stability was assessed over three freeze-thaw cycles. Short-term stability was determined by placing the samples at room temperature for 6 h. Long-term stability was evaluated by analyzing samples kept at −20°C for 14 days. Autosampler stability was determined by maintaining the samples at the autosampler temperature (8°C) for 12 h. All stabilities were calculating as the ratio of average concentration and freshly prepared samples.

[3] = po, rat plasma, BYHWT extract 10 g/kg p.o., n = 6, read-out: Cmax
[4] = po, rat plasma, BYHWT extract 10 g/kg p.o., n = 6, read-out: Tmax (converted)
[5] = po, rat plasma, BYHWT extract 10 g/kg p.o., n = 6, read-out: t1/2
[6] = rat plasma, BYHWT extract 10 g/kg p.o.

Cmax [1, 3] [ng/mL] | Tmax [1, 4] [h] | half-life [1, 5] [h] | absorption phase in the plasma concentration-time curve [1, 6] | Stability (%) Autosampler stability ([2]; concentration 1 (µg/mL)) [%] | Stability (%) Short-term stability ([2]; concentration 1 (µg/mL)) [%] | Stability (%) Freeze-thaw stability ([2]; concentration 1 (µg/mL)) [%] | Stability (%) Long-term stability ([2]; concentration 1 (µg/mL)) [%] | Stability (%) Autosampler stability ([2]; concentration 10 (µg/mL)) [%] | Stability (%) Short-term stability ([2]; concentration 10 (µg/mL)) [%] | Stability (%) Freeze-thaw stability ([2]; concentration 10 (µg/mL)) [%] | Stability (%) Long-term stability ([2]; concentration 10 (µg/mL)) [%] | Stability (%) Autosampler stability ([2]; concentration 100 (µg/mL)) [%] | Stability (%) Short-term stability ([2]; concentration 100 (µg/mL)) [%] | Stability (%) Freeze-thaw stability ([2]; concentration 100 (µg/mL)) [%] | Stability (%) Long-term stability ([2]; concentration 100 (µg/mL)) [%] | SMILES | also measured
– | – | – | – | 13±10 | 2.4±12 | 4.4±3.6 | 8.7±10 | −0.3±11 | −1.3±1.9 | −2.3±0.8 | −0.8±16 | −5.4±13 | −6.8±5.7 | 0.4±1.2 | 1.7±21 | CC(=O)O[C@H]1[C@H](O[C@H]2CC[C@]34C[C@]35CC[C@]3(C)[C@@H]([C@@]6(C)CC[C@@H](C(C)(C)O)O6)[C@@H](O)C[C@@]3(C)[C@@H]5C[C@H](O[C@@H]3O[C@H](CO)[C@@H](O)[C@H](O)[C@H]3O)[C@H]4C2(C)C)OC[C@@H](O)[C@@H]1O [Astragaloside II, astragaloside II] | Cl ([1]; rat, in vivo, po): 129 ± 15 mL/min/kg; Cmax ([1]; rat, in vivo, po, 10 g/kg): 30 ± 4.9 ng/mL; Tmax ([1]; rat, in vivo, po, 10 g/kg): 0.617 h; half-life ([1]; rat, in vivo, po, 10 g/kg): 3.53 ± 0.233 h; AUC ([1]; rat, in vivo, po, 10 g/kg): 190 ± 38.3 ng·h/mL
– | – | – | – | −5.3±7.9 | −3.6±8.0 | 4.6±3.6 | −14±17 | 4.3±6.6 | −4.1±10 | 3.8±2.7 | −8.3±2.3 | −4.9±7.0 | −6.4±6.4 | −1.8±5.4 | −27±12 | CC(=O)OC1C(O)COC(OC2CCC34CC35CCC3(C)C(C6(C)CCC(C(C)(C)O)O6)C(O)CC3(C)C5CC(OC3OC(CO)C(O)C(O)C3O)C4C2(C)C)C1OC(C)=O (centres unmarked) [Astragaloside I, astragaloside I] | Cl ([1]; rat, in vivo, po): 90.5 ± 14 mL/min/kg; Cmax ([1]; rat, in vivo, po, 10 g/kg): 55 ± 7.8 ng/mL; Tmax ([1]; rat, in vivo, po, 10 g/kg): 0.667 h; half-life ([1]; rat, in vivo, po, 10 g/kg): 2.77 ± 0.467 h; AUC ([1]; rat, in vivo, po, 10 g/kg): 277 ± 43.3 ng·h/mL

The remaining lines, values behind:

SMILES | Cmax [1, 3] [ng/mL] | Tmax [1, 4] [h] | half-life [1, 5] [h] | absorption phase in the plasma concentration-time curve [1, 6] | Stability (%) Autosampler stability ([2]; concentration 1 (µg/mL)) [%] | Stability (%) Short-term stability ([2]; concentration 1 (µg/mL)) [%] | Stability (%) Freeze-thaw stability ([2]; concentration 1 (µg/mL)) [%] | Stability (%) Long-term stability ([2]; concentration 1 (µg/mL)) [%] | Stability (%) Autosampler stability ([2]; concentration 10 (µg/mL)) [%] | Stability (%) Short-term stability ([2]; concentration 10 (µg/mL)) [%] | Stability (%) Freeze-thaw stability ([2]; concentration 10 (µg/mL)) [%] | Stability (%) Long-term stability ([2]; concentration 10 (µg/mL)) [%] | Stability (%) Autosampler stability ([2]; concentration 100 (µg/mL)) [%] | Stability (%) Short-term stability ([2]; concentration 100 (µg/mL)) [%] | Stability (%) Freeze-thaw stability ([2]; concentration 100 (µg/mL)) [%] | Stability (%) Long-term stability ([2]; concentration 100 (µg/mL)) [%] | also measured
COc1ccc(-c2coc3cc(O[C@@H]4O[C@H](CO)[C@@H](O)[C@H](O)[C@H]4O)ccc3c2=O)cc1 [Ononin, ononin] | 19 ± 4.5 | 0.583 | 2.23 ± 0.16 | single and plateau absorption phase | 4.7±7.7 | 12±6.3 | 3.9±6.4 | −7.2±10 | −7.0±1.4 | −12±4.6 | −2.5±7.3 | −6.2±2.9 | 8.1±3.8 | 6.7±2.1 | 4.2±1.3 | 3.2±3.9 | –
CCC/C=C1\OC(=O)C2=C1CCC=C2 [Ligustilide, ligustilide] | 7.8 ± 0.2 | 0.75 | 4.45 ± 0.02 | double-peak absorption phase | 2.0±10 | 14±11 | 8.7±5.9 | 6.7±10 | 13±7.2 | 11±10 | 2.7±2.2 | 5.0±14 | −1.6±10 | 12±7.5 | 6.5±1.4 | 23±12 | –
C[C@@]12C[C@@]3(O)O[C@@H](O1)[C@]1(COC(=O)c4ccccc4)[C@H]3C[C@@]12O[C@@H]1O[C@H](CO)[C@@H](O)[C@H](O)[C@H]1O [Paeoniflorin, paeoniflorin] | 97 ± 33 | 0.583 | 1.55 ± 0.533 | single and plateau absorption phase | – | – | – | – | −3.3±7.3 | 7.7±10 | 7.3±4.6 | 21±15 | −1.6±8.2 | −1.8±9.4 | 2.1±1.8 | 10±7.3 | Stability (%) Autosampler stability ([2]; concentration 1000 (µg/mL)): 8.5±5.1%; Stability (%) Short-term stability ([2]; concentration 1000 (µg/mL)): 11±8.4%; Stability (%) Freeze-thaw stability ([2]; concentration 1000 (µg/mL)): 9.5±0.2%; Stability (%) Long-term stability ([2]; concentration 1000 (µg/mL)): 27±9.9%
O=c1[nH]cnc2nc[nH]c12 [hypoxanthine] | – | – | – | – | – | – | – | – | – | – | – | – | – | – | – | – | observed in rat plasma after oral administration of BYHWT ([1]; preliminary experiments): could not be observed
COc1ccc(-c2coc3cc(O)ccc3c2=O)cc1O [Calycosin, calycosin] | 1230 ± 171 | 0.667 | 1.25 ± 0.183 | single and plateau absorption phase | – | – | – | – | −3.5±11 | 1.4±11 | 9.6±4.7 | 2.5±5.7 | −2.2±3.5 | 14±12 | 8.6±3.8 | 17±5.2 | AUC ([1]; rat plasma, BYHWT extract 10 g/kg p.o., n = 6): 5130 ± 1220 ng·h/mL; Stability (%) Autosampler stability ([2]; concentration 1000 (µg/mL)): 7.1±4.9%; Stability (%) Short-term stability ([2]; concentration 1000 (µg/mL)): 13±7.3%; Stability (%) Freeze-thaw stability ([2]; concentration 1000 (µg/mL)): 2.9±4.5%; Stability (%) Long-term stability ([2]; concentration 1000 (µg/mL)): 21±12%
COc1ccc(-c2coc3cc(O[C@@H]4O[C@H](CO)[C@@H](O)[C@H](O)[C@H]4O)ccc3c2=O)cc1O [Calycosin-7-O-β-D-glucoside, calycosin-7-O-β-D-glucoside] | 18 ± 4.1 | 0.533 | 5.63 ± 2.2 | single and plateau absorption phase | −8.4±12 | 2.5±11 | 5.8±6.1 | 6.4±12 | 2.1±9.1 | 7.3±12 | 4.9±3.5 | 23±13 | 3.5±7.9 | −0.1±0.9 | 7.0±1.2 | 20±12 | –
